From publication PMC7730182, “Synthesis and in Silico Modelling of the Potential Dual Mechanistic Activity of Small Cationic Peptides Potentiating the Antibiotic Novobiocin against Susceptible and Multi-Drug Resistant Escherichia coli” (International Journal of Molecular Sciences, 2020)
Where a SMILES comes first, the peptide text is derived from it. The star is where a group is joined. βNA = c1ccc2cc(N*)ccc2c1

What was measured:
Format in all cases: cell-based, Escherichia coli
[1] = test system: susceptible E. coli NCTC 10418; test: Novobiocin potentiation assay (MIC of novobiocin with fixed concentration of peptide or PAβN); set-up: key to MIC of Novobiocin, E. coli NCTC 10418, +128 μg/mL added peptide / MIC of Novobiocin, E. coli NCTC 10418, +32 μg/mL added peptide: Non potentiating (NP) indicated no reduction in the MIC of novobiocin was observed; details: for MIC of Novobiocin, E. coli NCTC 10418, +128 μg/mL added peptide / MIC of Novobiocin, E. coli NCTC 10418, +32 μg/mL added peptide: Iso-Sensitest Broth, 5 × 10^5 CFU/mL, visual read-out; for MIC of Novobiocin, E. coli NCTC 10418, +128 μg/mL added peptide: fixed 128 μg/mL peptide; for MIC of Novobiocin, E. coli NCTC 10418, +32 μg/mL added peptide: fixed 32 μg/mL peptide; for potentiation of the MIC of novobiocin, result in words: added peptide, wording covers susceptible and multi-drug resistant strain
Experimental: (§1) The peptides were also tested in combination with antibiotics novobiocin and norfloxacin. Novobiocin has low efficacy against Gram-negative bacteria due to its hydrophobicity, giving limited cell permeability.
(§2) The antibacterial activity of the peptides and peptide/antibiotic combinations were tested by the broth microdilution assay according to [24]. Escherichia coli NCTC 10,418 and Staphylococcus aureus NCTC 12,981 were obtained from the National Collection of Type Cultures, UK. Escherichia coli G69 was a clinical isolate as previously described.
(§3) Briefly, all bacterial strains were cultured on nutrient agar (Sigma-Aldrich, Gillingham, UK) plates and incubated for 24 h at 37 °C prior to MIC determination. In addition, known quantities of each test sample were dissolved in DMSO and then diluted in ISB (Iso- Sensitest Broth, Oxoid, Basingstoke, UK) to give a range concentration of 128–0 μg/mL, unless stated differently. […] Finally, the overnight cultures of each of the tested strains were suspended to an inoculum density of approximately 1.0 × 10^8 CFU/mL in phosphate buffered saline (PBS), consisting of 137 mM NaCl, 3 mM KCl, 8 mM Na2HPO4, and […] (Oxoid, Basingstoke, UK). The cell suspensions were standardized by adjusting the optical density to 0.1 at 600 nm (Thermo Scientific UV-Vis Spectrophotometer, Abingdon, UK) before being diluted 1:100 in ISB prior to inoculation
(§4) The assays were performed by microdilution using 96-well microtiter plates with a final inoculum of 5 × 10^5 CFU/mL and each sample was tested in duplicate in at least two independent experiments in order to confirm the reliability of the data. Results were determined by visual inspection of the wells and the presence of an evident opaque medium or white pellets were indicative of bacterial growth. The MIC values were recorded as the lowest concentration at which no bacterial growth was detected.

[2] = test system: multi-drug resistant clinical isolate E. coli G69; test: as above; set-up: key to MIC of Novobiocin, E. coli G69, +32 μg/mL added peptide / MIC of Novobiocin, E. coli G69, +128 μg/mL added peptide: Non potentiating (NP) indicated no reduction in the MIC of novobiocin was observed; details: for MIC of Novobiocin, E. coli G69, +128 μg/mL added peptide / MIC of Novobiocin, E. coli G69, +32 μg/mL added peptide: Iso-Sensitest Broth, 5 × 10^5 CFU/mL, visual read-out; for MIC of Novobiocin, E. coli G69, +128 μg/mL added peptide: fixed 128 μg/mL peptide; for potentiation of novobiocin against multi-drug resistant E. coli, result in words: E. coli G69, added peptide; for MIC of Novobiocin, E. coli G69, +32 μg/mL added peptide: fixed 32 μg/mL peptide
Experimental: as §1, §2, §3, §4

[3] = test system: multidrug resistant clinical isolate E. coli G69; test: Norfloxacin potentiation assay (MIC of norfloxacin with fixed concentration of peptide or PAβN); details: broth microdilution, duplicate; for MIC of norfloxacin, E. coli G69, +128 μg/mL of peptide: fixed 128 μg/mL peptide
Experimental: (§5) In order to gather more evidence on the potential mechanisms of action, the effects of the peptides in combination with the quinolone antibiotic norfloxacin were determined. Norfloxacin is active against Gram-negative bacteria, generally achieving entry via porin channels, but is also able to enter the bacterial cell via the membrane in porin-deficient mutants. Therefore, any membrane permeability mechanism would not be expected to have a significant effect on improving the activity of norfloxacin in porin-competent strains. This is indeed what was observed (Table S5), which added weight to our hypothesis that our very short peptides may be acting as membrane permeability enhancers for novobiocin.
as §2
as §3, with “inoculation […]” for “inoculation”
as §4, with “detected. […]” for “detected.”
(§6) potentiating novobiocin. Assays were performed at fixed concentration of 128 μg/mL against susceptible E. coli 10418 and multidrug resistant clinical isolate E. coli G69. Potentiation assay for norfloxacin was also performed in presence of 64 μg/mL of RND efflux pump inhibitor PAβN. All tests were repeated in […]
(§7) Compound Sequence MIC of norfloxacin (μg/mL) […]
(§8) inhibitor PaβN but no potentiation was observed, so the assay was not repeated at lower concentrations.

[4] = test system: susceptible E. coli 10418; test: as above; details: broth microdilution, duplicate; for MIC of norfloxacin, E. coli 10418, +128 μg/mL of peptide: fixed 128 μg/mL peptide
Experimental: as §5, §2
as §3, with “inoculation […]” for “inoculation”
as §4, with “detected. […]” for “detected.”
as §6, §7, §8

[5] = fixed 32 μg/mL PAβN, broth microdilution, duplicate
[6] = fixed 64 μg/mL PAβN, broth microdilution, duplicate

Compound	MIC of Novobiocin, E. coli NCTC 10418, +128 μg/mL added peptide ([1]; broth microdilution, duplicate)	MIC of Novobiocin, E. coli G69, +128 μg/mL added peptide ([2]; broth microdilution, duplicate)	MIC of Novobiocin, E. coli G69, +32 μg/mL added peptide ([2]; broth microdilution, duplicate)	MIC of norfloxacin, E. coli G69, +128 μg/mL of peptide [3]	MIC of norfloxacin, E. coli 10418, +128 μg/mL of peptide [4]	further results
NC(N)=NCCC[C@H](NC(=O)[C@@H](N)Cc1ccccc1)C(=O)Nc1ccc2ccccc2c1 [PAβN, phenylalanine-arginine-β-naphthylamide, reference compound] (H-Phe-Arg-βNA)	–	–	–	–	–	reduction in MIC for novobiocin, susceptible E. coli 10418 ([1]; PAβN concentration of 72 μM (32 μg/mL)): twofold; MIC of Novobiocin, E. coli NCTC 10418, +32 μg/mL PAβN [1, 5]: 16 µg/mL; MIC of Novobiocin, E. coli NCTC 10418, +64 μg/mL PAβN [1, 6]: 8 µg/mL; MIC of Novobiocin, E. coli G69, +32 μg/mL PAβN [2, 5]: 8 µg/mL; MIC of Novobiocin, E. coli G69, +64 μg/mL PAβN [2, 6]: 2 µg/mL; concentration at which synergism with novobiocin is provided against multi-drug resistant E. coli G69 ([2]; molar equivalent of the 32 μg/mL fixed concentration): 72 µM; MIC of norfloxacin, E. coli G69, +64 μg/mL PAβN ([3]; fixed 64 μg/mL PAβN): > 128 µg/mL; MIC of norfloxacin, E. coli 10418, +64 μg/mL PAβN ([4]; fixed 64 μg/mL PAβN): 0.125 µg/mL
FKFK [Compound 17, short cationic peptide FKFK, amidated at the C-terminus]	NP	NP	–	–	–	–
FKFKF [Compound 19, short cationic peptide FKFKF, amidated at the C-terminus]	4 µg/mL	8 µg/mL	32 µg/mL	–	–	MIC of Novobiocin, E. coli NCTC 10418, +32 μg/mL added peptide ([1]; broth microdilution, duplicate): 128 µg/mL; potentiation of novobiocin against multi-drug resistant E. coli, result in words [2]: restore the susceptibility
FKPLPPH [Compound 25, proline-rich peptide FKPLPPH, C-terminal amide; commercial sample from ThermoFisher]	8 µg/mL	NP	–	> 128 µg/mL	0.062 µg/mL	potentiation of the MIC of novobiocin, result in words [1]: Potentiation was restored but again only against susceptible strain
FRFR [Compound 8, short cationic peptide FRFR, amidated at the C-terminus]	NP	8 µg/mL	NP	–	–	–
FRFRF [Compound 10, short cationic peptide FRFRF, amidated at the C-terminus]	2 µg/mL	4 µg/mL	8 µg/mL	–	–	potentiation of novobiocin against multi-drug resistant E. coli, result in words [2]: restore the susceptibility
FRRQRF [Compound 21, short cationic peptide FRRQRF, C-terminal amide; commercial sample from ThermoFisher]	NP ^†	NP	–	> 128 µg/mL	0.062 µg/mL	–
KFKF [Compound 18, short cationic peptide KFKF, amidated at the C-terminus]	NP	NP	–	–	–	–
KWKW [Compound 14, short cationic peptide KWKW, amidated at the C-terminus]	NP	NP	–	–	–	–
RFRF [Compound 9, short cationic peptide RFRF, amidated at the C-terminus]	2 µg/mL	8 µg/mL	128 µg/mL	> 128 µg/mL	0.062 µg/mL	MIC of Novobiocin, E. coli NCTC 10418, +32 μg/mL added peptide ([1]; broth microdilution, duplicate): NP
RPPWRPPW [Compound 26]	8 µg/mL	NP	–	> 128 µg/mL	–	MIC of Novobiocin, E. coli NCTC 10418, +32 μg/mL added peptide ([1]; broth microdilution, duplicate): 64 µg/mL; potentiation of novobiocin against multi-drug resistant E. coli, result in words [2]: no potentiation was seen against the multidrug resistant strain
RPRPRPL [Compound 22, proline-rich cationic peptide RPRPRPL, amidated at the C-terminus]	NP	NP	–	> 128 µg/mL	0.062 µg/mL	potentiation of the MIC of novobiocin, result in words [1]: did not show any significant potentiation
RPRRPRLPW-NH2 [Compound 27]	0.125 µg/mL	16 µg/mL	16 µg/mL	> 128 µg/mL	0.062 µg/mL	fold reduction in the MIC of novobiocin against the susceptible strain ([1]; E. coli 10418, added peptide): 256 fold; MIC of Novobiocin, E. coli NCTC 10418, +32 μg/mL added peptide ([1]; broth microdilution, duplicate): 8 µg/mL; potentiation of novobiocin against multi-drug resistant E. coli, result in words [2]: restore the susceptibility
RPWPPR [Compound 23, proline-rich cationic peptide RPWPPR, amidated at the C-terminus]	4 µg/mL	NP	–	> 128 µg/mL	0.062 µg/mL	potentiation of the MIC of novobiocin, result in words [1]: shows potentiation, but only against the susceptible strain
RRFRF [Compound 11, short cationic peptide RRFRF, amidated at the C-terminus]	64 µg/mL	64 µg/mL	–	–	–	–
RWRW [Compound 5, short cationic peptide RWRW, amidated at the C-terminus]	2 µg/mL	16 µg/mL	64 µg/mL	> 128 µg/mL	0.062 µg/mL	MIC of Novobiocin, E. coli NCTC 10418, +32 μg/mL added peptide ([1]; broth microdilution, duplicate): 64 µg/mL
WKWK [Compound 13, short cationic peptide WKWK, amidated at the C-terminus]	NP	NP	–	–	–	–
